For this experiment, the target named is T1, IKKβ (Homo sapiens, UniProt O14920).
T1 sequence (O14920 1-756): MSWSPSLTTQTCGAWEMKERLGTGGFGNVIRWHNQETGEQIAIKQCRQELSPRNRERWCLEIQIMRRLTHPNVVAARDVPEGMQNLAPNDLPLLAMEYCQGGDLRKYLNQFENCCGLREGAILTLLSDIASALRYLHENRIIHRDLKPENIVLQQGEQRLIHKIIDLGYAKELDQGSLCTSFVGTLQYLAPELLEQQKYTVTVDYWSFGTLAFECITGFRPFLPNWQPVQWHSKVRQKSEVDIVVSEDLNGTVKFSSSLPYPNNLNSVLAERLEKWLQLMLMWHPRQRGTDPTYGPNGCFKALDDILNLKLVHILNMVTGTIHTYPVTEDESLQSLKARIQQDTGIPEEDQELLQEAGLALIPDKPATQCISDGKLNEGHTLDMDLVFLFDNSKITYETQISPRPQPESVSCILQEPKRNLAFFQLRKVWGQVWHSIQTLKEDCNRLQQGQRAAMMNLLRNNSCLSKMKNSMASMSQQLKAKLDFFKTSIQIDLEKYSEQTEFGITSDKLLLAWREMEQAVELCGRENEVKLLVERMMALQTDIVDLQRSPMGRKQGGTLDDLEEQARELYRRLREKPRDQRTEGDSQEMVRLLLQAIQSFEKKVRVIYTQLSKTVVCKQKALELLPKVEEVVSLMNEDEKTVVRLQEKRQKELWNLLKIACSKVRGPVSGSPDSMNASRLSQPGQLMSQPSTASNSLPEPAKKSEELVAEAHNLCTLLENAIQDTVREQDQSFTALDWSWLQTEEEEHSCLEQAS
Type of experiment: biochemical. To be noted: read-out: % inhibition at 100 μM.

One may read the inhibition as the share of the control response that was lost under treatment.

Consider `CCCCCC(=O)/C=C/C=C\C/C=C\C/C=C\CCCC(=O)O` [15-oxoETE], for which the inhibition at 100 µM is over 50%.

These data come from PMC4414684 (Chemico-biological interactions, 2014).
